Data published in BindingDB's records for doi:10.3109/14756366.2010.486794 (University of Lisbon, 2011).

Biological target: T1, Neutrophil elastase (Homo sapiens, UniProt P08246)
T1 sequence (P08246 whole entry): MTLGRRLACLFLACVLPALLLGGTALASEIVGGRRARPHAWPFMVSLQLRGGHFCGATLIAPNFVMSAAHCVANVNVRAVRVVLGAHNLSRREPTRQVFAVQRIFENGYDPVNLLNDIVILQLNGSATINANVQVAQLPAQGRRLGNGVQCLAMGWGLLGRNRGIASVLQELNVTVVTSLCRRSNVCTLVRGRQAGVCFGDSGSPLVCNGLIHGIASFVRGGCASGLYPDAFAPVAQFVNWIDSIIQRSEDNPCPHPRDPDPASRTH
Assay: Enzyme Kinetic Assay
Settings: 25 °C
Experimental: The inhibition of the HLE was studied at 25°C by continuously monitoring the absorbance at 410 nm for 20 min of a solution prepared by mixing 10 μL of HLE stock solution (2 μM in 0.05M acetate buffer, pH 5.5) with a solution containing 10 μL of 5 in DMSO, 20 μL of MeOSuc-Ala-Ala-Pro-Val-p-NA (50 mM in DMSO) and 960 μL of 0.1M pH 7.2 HEPES buffer. Control assays, in which the inhibitor was omitted, ran linearly.

Ki: 0.63 nM
SMILES: CCC1(CC)C(=O)N(c2ccc(CS(=O)(=O)c3ccccc3)cc2)C1=O [4-oxo-β-lactam (3)]
